The results in this text go back to patent US20230399289A1, “ITACONIC ACID DERIVATIVES” (Sitryx Therapeutics Limited, priority 2020, published 2023).

Data set [1] concerns IL-6 cytokine output from THP-1 cells. The data set is described as follows: THP-1 AlphaLISA IL-6 cytokine assay. Format: cell-based. The following applies: Homo sapiens, THP-1, differentiated THP-1 cells, LPS 24 hr then Nigericin 1 hour. How it is done: (§1) Measuring Inhibitory Effects on IL-1β and IL-6 Cytokine Output from THP-1s
(§2) The cytokine inhibition profiles of compounds of formula (I) were determined in a differentiated THP-1 cell assay. All assays were performed in RPMI-1640 growth medium (Gibco), supplemented with 10% fetal bovine serum (FBS; Gibco), 1% penicillin-streptomycin and 1% sodium pyruvate unless specified otherwise. The IL-1β and IL-6 cytokine inhibition assays were each run in a background of differentiated THP-1 cells as described below. All reagents described were from Sigma-Aldrich unless specified otherwise. Compounds were prepared as 10 mM DMSO stocks.
(§3) THP-1 cells were expanded as a suspension up to 80% confluence in appropriate growth medium. Cells were harvested, suspended, and treated with an appropriate concentration of phorbol 12-myristate 13-acetate (PMA) over a 72 hr period (37° C./5% CO2).
(§4) Following 72 hrs of THP-1 cell incubation, cellular medium was removed and replaced with fresh growth media containing 1% of FBS. Working concentrations of compounds were prepared separately in 10% FBS treated growth medium and pre-incubated with the cells for 30 minutes (37° C./5% CO2). Following the 30 minute compound pre-incubation, THP-1s were treated with an appropriate concentration of LPS and the THP-1s were subsequently incubated for a 24 hr period (37° C./5% CO2). An appropriate final concentration of Nigericin was then dispensed into the THP-1 plates and incubated for 1 hour (37° C./5% CO2) before THP-1 supernatants were harvested and collected in separate polypropylene 96-well holding plates.
(§5) Reagents from each of the […] and IL-6 commercial kits (Perkin Elmer) were prepared and run according to the manufacturer's instructions. Subsequently, fluorescence signal detection in a microplate reader was measured (EnVision® Multilabel Reader, Perkin Elmer).
(§6) Percentage inhibition was calculated per cytokine by normalising the sample data to the high and low controls used within each plate (+/−LPS respectively). Percentage inhibition was then plotted against compound concentration and the 50% inhibitory concentration (IC50) was determined from the resultant concentration-response curve.
In general terms: Alpha assays give light when donor and acceptor beads are brought close together.

The subject of data set [2] is IL-1β cytokine output from THP-1 cells. The data set is described as follows: THP-1 AlphaLISA IL-1β cytokine assay. The following applies: Homo sapiens, THP-1, differentiated THP-1 cells, LPS 24 hr then Nigericin 1 hour. It is filed as cell-based. How it is done: as §1, §2, §3, §4, §5, §6
For data set [3], the system named is NRF2 (nuclear factor erythroid 2-related factor 2). The data set is described as follows: NRF2 +/−GSH activation assay (DiscoverX PathHunter NRF2 translocation kit, U2OS cells). It is filed as cell-based. To be noted: Homo sapiens; for Emax: U2OS, normalised to dimethyl fumarate high control; for EC50: U2OS PathHunter cells, 6 hours.
Data set [4] in a line: Hepatocyte stability assay, human. It is filed as in vitro ADME. To be noted: cryopreserved hepatocytes, 10 μM compound, 0.5×10^6 cells/mL, 60 min, read-out: T½. From the text: (§7) Defrosted cryo-preserved hepatocytes (viability>70%) may be used to determine the metabolic stability of a compound via calculation of intrinsic clearance (Clint; a measure of the removal of a compound from the liver in the absence of blood flow and cell binding). Clearance data are particularly important for in vitro work as they can be used in combination with in vivo data to predict the half-life and oral bioavailability of a drug.
(§8) The metabolic stability in hepatocytes assay involves a time-dependent reaction using both positive and negative controls. The cells were pre-incubated at 37° C. and spiked with test compound (and positive control); samples were taken at pre-determined time intervals and analysed to monitor the change in concentration of the initial drug compound over 60 minutes. A buffer incubation reaction (with no hepatocytes present) acted as a negative control and two cocktail solutions, containing compounds with known high and low clearance values (verapamil/7-hydroxycoumarin and propranolol/diltiazem), acted as positive controls. • 1. The assay was run with a cell concentration of 0.5×10^6 cells/mL in Leibovitz buffer. • 2. All compounds and controls were run in duplicate. • 3. Compound concentration was 10 μM. • 4. All compounds and controls were incubated with both cells and buffer to show turnover was due to hepatic metabolism. • 5. All wells on the incubation plate had 326.7 μL of either cells or buffer added. • 6. Prior to assay, cell and buffer-only incubation plates were preincubated for 10 mins at 37° C. • 7. The assay was initiated by adding compounds, 3.3 μL of 1 mM in 10% DMSO-90% Buffer; final DMSO concentration is 0.1%. • 8. Samples were taken at regular timepoints (0, 5, 10, 20, 40, 60 min) until 60 mins. • 9. Sample volume was 40 μL and was added to 160 μL of crash solvent (acetonitrile with internal standard) and stored on ice. • 10. At the end of the assay, the crash plates were centrifuged at 3500 rpm for 20 mins at 4° C. • 11. 80 μL of clear supernatant was removed and mixed with 80 μL of deionised water before being analysed by LC-MS/MS.
(§9) Raw LC-MS/MS data was exported to, and analysed in, Microsoft Excel for determination of intrinsic clearance. The percentage remaining of a compound was monitored using the peak area of the initial concentration as 100%. Intrinsic clearance and half-life values were calculated using a graph of the natural log of percentage remaining versus the time of reaction in minutes. Half-life (min) and intrinsic clearance (Clint in μL min^−1 10^−6 cells) values were calculated using the gradient of the graph (the elimination rate constant, k) and Equations 1 and 2.

In data set [5] the test system is hepatocytes. Put plainly: Hepatocyte stability assay, human. Format: in vitro ADME. The following applies: 10 μM compound, 0.5×10^6 cells/mL, 60 min.
Excerpt: as §7, §8, §9

Data set [6] can be described thus: Hepatocyte stability assay, mouse. It is filed as in vitro ADME. To be noted: cryopreserved hepatocytes, 10 μM compound, 0.5×10^6 cells/mL, 60 min, read-out: T½.
Excerpt: as §7, §8, §9

The test system of data set [7] is hepatocytes. The data set is described as follows: Hepatocyte stability assay, mouse. It is filed as in vitro ADME. The following applies: 10 μM compound, 0.5×10^6 cells/mL, 60 min.
Excerpt: as §7, §8, §9

Setting [8] is: +GSH, 30 minute compound-GSH pre-incubation.

Structures can show the parent of a compound that is named as a salt.

In the case of `C=C(CC(=O)OC1(c2ccc(C(F)(F)F)cc2)CC(F)(F)C1)C(=O)OCC(=O)O` [Example 31, 2-((4-(3,3-difluoro-1-(4-(trifluoromethyl)phenyl)cyclobutoxy)-2-methylene-4-oxobutanoyl)oxy)acetic acid], the IC50 in data set [1] was determined as 16.5 µM; in data set [2] it was 14.4 µM. Further, the Emax in data set [3] (+GSH) turned out to be 108%; in data set [3] (−GSH), 182%. The figures for the EC50 in data set [3] (setting [8]) and in data set [3] (−GSH) were 30.8 µM and 21.7 µM, respectively.

As to `C=C(CC(=O)OC1(c2ccc(C(F)(F)F)c(Cl)c2)CCC1)C(=O)OCC(=O)O` [Example 16, 2-((4-(1-(3-chloro-4-(trifluoromethyl)phenyl)cyclobutoxy)-2-methylene-4-oxobutanoyl)oxy)acetic acid], the half-life at 10 μM was found to be 209 min in data set [4] and 25 min in data set [6]. In addition, the CIint in data set [5] turned out to be 7 μL min^−1 10^−6 cells; in data set [7], 61 μL min^−1 10^−6 cells. Besides, the IC50 in data set [2] worked out at 4.9 µM.

For `C=C(CC(=O)OC1(Cc2ccc(Cl)cc2)CCC1)C(=O)OCC(=O)O` [Example 24, 2-((4-(1-(4-chlorobenzyl)cyclobutoxy)-2-methylene-4-oxobutanoyl)oxy)acetic acid], the IC50 in data set [1] amounted to 11.3 µM; in data set [2], 14.5 µM. The Emax in data set [3] (+GSH) is 119%; in data set [3] (−GSH), 194%. For the same compound, the EC50 in data set [3] (setting [8]) was found to be 28.3 µM; in data set [3] (−GSH) it was 29.6 µM.

As for `C=C(CC(=O)OC1(c2ccc(C(F)(F)F)cc2)CCC1)C(=O)O[C@H](CC(=O)O)C(F)(F)F` [Example 23, (R)-4,4,4-trifluoro-3-((2-methylene-4-oxo-4-(1-(4-(trifluoromethyl)phenyl)cyclobutoxy)butanoyl)oxy)butanoic acid], the IC50 in data set [1] was found to be 1.2 µM; in data set [2], 1.5 µM. Moreover, the Emax came out at 54% in data set [3] (+GSH) and 141% in data set [3] (−GSH). The EC50 in data set [3] (setting [8]) was found to be 5.3 µM; in data set [3] (−GSH) it was 2.3 µM.

`C=C(CC(=O)OC)C(=O)OC` [dimethyl itaconate, reference compound]: the IC50 in data set [1] and in data set [2] was more than 100 µM throughout.

Turning to `C=C(CC(=O)OC1(c2ccc(C(F)(F)F)cc2)COC1)C(=O)OCC(=O)O` [Example 29, 2-((2-methylene-4-oxo-4-((3-(4-(trifluoromethyl)phenyl)oxetan-3-yl)oxy)butanoyl)oxy)acetic acid], the IC50 in data set [1] was 45.2 µM; in data set [2], 43.2 µM.

`C=C(CC(=O)OC1(C#Cc2ccc(C(F)(F)F)cc2)CCC1)C(=O)OCC(=O)O` [Example 28, 2-((2-methylene-4-oxo-4-(1-((4-(trifluoromethyl)phenyl)ethynyl)cyclobutoxy)butanoyl)oxy)acetic acid]: the IC50 in data set [1] came to 3.3 µM; in data set [2], 11.3 µM.

As for `C=C(CC(=O)OC1(c2cc(F)c(F)c(F)c2)CCC1)C(=O)OCC(=O)O` [Example 14, 2-((2-methylene-4-oxo-4-(1-(3,4,5-trifluorophenyl)cyclobutoxy)butanoyl)oxy)acetic acid], in data set [2], the IC50 was 19.9 µM.

With `C=C(CC(=O)OC1(c2ccc(-c3ccc(F)cc3)cc2)CCC1)C(=O)OCC(=O)O` [Example 26, 2-((4-(1-(4′-fluoro-[1,1′-biphenyl]-4-yl)cyclobutoxy)-2-methylene-4-oxobutanoyl)oxy)acetic acid], the IC50 was 3.9 µM in data set [1] and 46.9 µM in data set [2].

As for `C=C(CC(=O)OC1(Cc2ccc(C(F)(F)F)cc2)CC1)C(=O)OCC(=O)O` [Example 27, 2-((2-methylene-4-oxo-4-(1-(4-(trifluoromethyl)benzyl)cyclopropoxy)butanoyl)oxy)acetic acid], the IC50 was determined as 14.1 µM in data set [1] and 16.4 µM in data set [2].

Take `C=C(CC(=O)OC1(c2cc(F)c(C(F)(F)F)c(F)c2)CCC1)C(=O)OCC(=O)O` [Example 19, 2-((4-(1-(3,5-difluoro-4-(trifluoromethyl)phenyl)cyclobutoxy)-2-methylene-4-oxobutanoyl)oxy)acetic acid]: the half-life at 10 μM in data set [4] was 187 min; in data set [6], 23 min. Moreover, the CIint in data set [5] worked out at 8 μL min^−1 10^−6 cells; in data set [7] it was 66 μL min^−1 10^−6 cells. The IC50 in data set [2] came to 4.4 µM.

On to `C=C(CC(=O)OC1(c2cccc(Cl)c2Cl)CCC1)C(=O)OCC(=O)O` [Example 7, 2-((4-(1-(2,3-dichlorophenyl)cyclobutoxy)-2-methylene-4-oxobutanoyl)oxy)acetic acid], for which the results for the half-life at 10 μM in data set [4] and in data set [6] were 151 min and 18 min, respectively. For the same compound, the values for the CIint in data set [5] and in data set [7] were 10 μL min^−1 10^−6 cells and 107 μL min^−1 10^−6 cells, respectively. Half-maximal inhibition in data set [2] (IC50) required 17.4 µM.

For `C=C(CC(=O)OC1(c2ccc(C(F)(F)F)cc2)CCCC1)C(=O)OCC(=O)O` [Example 25, 2-((2-methylene-4-oxo-4-((1-(4-(trifluoromethyl)phenyl)cyclopentyl)oxy)butanoyl)oxy)acetic acid], the half-maximal inhibitory concentration (IC50) in data set [1] was 15.9 µM; in data set [2], 17.4 µM.

Turning to `COC(=O)/C=C/C(=O)OC` [dimethyl fumarate, reference compound], the Emax in data set [3] (+GSH) worked out at 19%; in data set [3] (−GSH) it was 100%. Also, the EC50 in data set [3] (setting [8]) was more than 100 µM; in data set [3] (−GSH), 6 µM.

For `C=C(CC(=O)OCCCCCCCC)C(=O)O` [4-octyl itaconate, reference compound], the CIint in data set [5] turned out to be 401 μL min^−1 10^−6 cells; in data set [7], 351 μL min^−1 10^−6 cells. Also, the T½ in data set [5] and in data set [7] was 4 min throughout.

On to `C=C(CC(=O)OC1(c2ccc(C(F)(F)F)cc2)CCC1)C(=O)O[C@@H](CC(=O)O)C(F)(F)F` [Example 21, (S)-4,4,4-trifluoro-3-((2-methylene-4-oxo-4-(1-(4-(trifluoromethyl)phenyl)cyclobutoxy)butanoyl)oxy)butanoic acid], for which the IC50 in data set [1] was 0.9 µM; in data set [2] it was 1 µM. For the same compound, the Emax in data set [3] (+GSH) was 53%; in data set [3] (−GSH), 170%. Besides, the EC50 in data set [3] (setting [8]) turned out to be 5.7 µM; in data set [3] (−GSH), 1.7 µM.

Take `C=C(CC(=O)OC1(c2cc(Cl)cc(C(F)(F)F)c2)CCC1)C(=O)OCC(=O)O` [Example 15, 2-((4-(1-(3-chloro-5-(trifluoromethyl)phenyl)cyclobutoxy)-2-methylene-4-oxobutanoyl)oxy)acetic acid]: the midpoint of inhibition in data set [2], the IC50, lay at 8.6 µM. In other words, the single-digit micromolar range.

As usually defined, the IC50 is the point on the concentration scale where inhibition reaches its midpoint. Higher therefore signals lower potency. The term Emax denotes the size of the effect at its maximum, as opposed to the concentration needed. The term EC50 denotes the midpoint of the concentration-response curve. Read a high EC50 as weaker potency.
